Experimental data taken from article PMC3172709 (Journal of pharmacy & pharmaceutical sciences : a …, 2011).
“And” between values parts separate entries of the source, which are not always exact repeats. Equal entries are not always repeated. Where two headings read alike, the source gives them in different places.

What was measured:
[1] = ref Facts & Comparisons 4.0, online edition, cited from earlier work
P-gp [2] = assay: in vitro; conditions: human, EC50 to up-regulate P-gp expression
P-gp [3] = system: P-gp
P-gp [4] = assay: in vitro; conditions: human, EC50 to up-regulate P-gp activity
MDR1 mRNA = conditions: LS-180 cells, 48 h, 50 μM
P-gp [5] = assay: Western blot analysis of P-gp protein expression in drug-treated LS-180 cells
P-gp [6] = conditions: rat, three-day in vivo treatment, 20 mg/kg once daily; cited from earlier work

Question: What does the source list for `Cn1c(=O)c2c(ncn2C)n(C)c1=O` [Caffeine, caffeine]?
Answer: plasma concentration, range ([1]; after 250 mg dose): 25 to 130 µM; EC50 at 48 h (P-gp [2]): 9.1 µM; increase in P-gp activity (P-gp [3]): 250–300%

Question: Which EC50 at 48 h (P-gp [2]) does the source give for `C[C@@H]1C[C@H]2[C@@H]3CCC4=CC(=O)C=C[C@]4(C)[C@@]3(F)[C@@H](O)C[C@]2(C)[C@@]1(O)C(=O)CO` [Dexamethasone, dexamethasone] here?
Answer: The EC50 at 48 h was 46 µM.

Question: What does the source list for `C1CCc2nnnn2CC1` [Pentylenetetrazole, pentylenetetrazole]?
Answer: EC50 at 48 h (P-gp [4]): 11.8 µM; fold increase in MDR1 mRNA level (MDR1 mRNA): ~ 3 fold and 3–4 fold; induction in P-gp activity (P-gp [3]; LS-180 cells, 48 h, 50 μM): 70%; increase in P-gp activity (P-gp [3]; LS-180 cells, 48 h, concentration range 25–100 μM): ~ 80%; increase in P-gp activity (P-gp [3]; LS-180 cells, 48 h, concentration range 25–100 μM, listed as pentylenetetrazole): 80%; Emax (fold ↑ in P-gp activity) (P-gp [3]; LS-180 cells, 48 h, four-parameter Hill fit): 2.0 fold; increase in P-gp expression (P-gp [5]; 48 h, 50 μM): ~ 10%; increase in P-gp expression (P-gp [5]; 48 h, 100 μM): 100%; up-regulation of P-gp protein levels (P-gp [5]; 48 h, concentrations at 50 μM and higher): ≤ 2 fold; EC50 at 48 h (P-gp [5]; human, EC50 to up-regulate P-gp expression, following normalization to 100%): > 50 µM

Question: For `CO[C@H]1/C=C/O[C@@]2(C)Oc3c(C)c(O)c4c(O)c(c(/C=N/N5CCN(C)CC5)c(O)c4c3C2=O)NC(=O)/C(C)=C\C=C\[C@H](C)[C@H](O)[C@@H](C)[C@@H](O)[C@@H](C)[C@H](OC(C)=O)[C@@H]1C` [Rifampicin], which “plasma concentrations, range” value ([1]; following 600 mg dose) is on record?
Answer: The value was 5 to 38 µM.

Question: What about the EC50 at 48 h (P-gp [2]) of the same compound?
Answer: The EC50 at 48 h was 5 µM.

Question: What about the “increase in P-gp activity” value (P-gp [3]; LS-180 cells, 48 h, over the range 5–100 μM) of the same compound?
Answer: Its value is 60–290%.

Question: Which “increase in P-gp expression at the BBB” value (P-gp [6]) does the source give for `CC(C)c1nc(CN(C)C(=O)N[C@H](C(=O)N[C@@H](Cc2ccccc2)C[C@H](O)[C@H](Cc2ccccc2)NC(=O)OCc2cncs2)C(C)C)cs1` [ritonavir] here?
Answer: The value was 30%.

Question: With hyperforin as the compound, how does the “increase in P-gp activity” value (P-gp [3]; LS-180 cells, 48 h, 50 nM) read?
Answer: The value was 110%.

Question: And the “increase in P-gp activity” value (P-gp [3]; LS-180 cells, 48 h, 150 nM)?
Answer: Its value is 190%.
